Assay results from ChEMBL document CHEMBL2203234, “Optimisation of imidazole compounds as selective TAAR1 agonists: discovery of RO5073012” (Bioorg Med Chem Lett, 2012).

What was measured:
[1] = molecular target: Neurotensin receptor type 1 (Homo sapiens) (UniProt P30989); assay: Inhibition of human NT1 receptor at 10 uM by CEREP assay
[2] = molecular target: Histamine H2 receptor (Homo sapiens) (UniProt P25021); assay: Inhibition of human H2 receptor at 10 uM by CEREP assay
[3] = Half life in rat at 10 mg/kg, po; format: ADME, organism-based; parameters: dose 10 mg/kg, route oral; settings: in vivo
[4] = Inhibition of L-type Ca2+ channel DHP site at 10 uM by CEREP assay
[5] = molecular target: Substance-P receptor (Homo sapiens) (UniProt P25103); assay: Inhibition of human Nk1 receptor at 10 uM by CEREP assay
[6] = molecular target: C5a anaphylatoxin chemotactic receptor 1 (Homo sapiens) (UniProt P21730); assay: Inhibition of human C5a receptor at 10 uM by CEREP assay
[7] = molecular target: 5-hydroxytryptamine receptor 1A (Homo sapiens) (UniProt P08908); assay: Inhibition of human 5-HT1A receptor at 10 uM by CEREP assay
[8] = molecular target: Mu-type opioid receptor (Homo sapiens) (UniProt P35372); assay: Inhibition of human MOP receptor at 10 uM by CEREP assay
[9] = Inhibition of central BZD receptor at 10 uM by CEREP assay
[10] = molecular target: Histamine H1 receptor (Homo sapiens) (UniProt P35367); assay: Inhibition of human H1 receptor at 10 uM by CEREP assay
[11] = molecular target: D(3) dopamine receptor (Homo sapiens) (UniProt P35462); assay: Inhibition of human D3 receptor at 10 uM by CEREP assay
[12] = Inhibition of L-type Ca2+ channel diltiazem site at 10 uM by CEREP assay
[13] = molecular target: Adenosine receptor A1 (Homo sapiens) (UniProt P30542); assay: Inhibition of human A1 receptor at 10 uM by CEREP assay
[14] = molecular target: Acetylcholinesterase (Homo sapiens) (UniProt P22303); assay: Inhibition of human Acetylcholinesterase at 10 uM by CEREP assay
[15] = molecular target: Catechol O-methyltransferase (Homo sapiens) (UniProt P21964); assay: Inhibition of COMT at 10 uM by CEREP assay
[16] = molecular target: cGMP-specific 3',5'-cyclic phosphodiesterase (Canis lupus familiaris) (UniProt O77746); assay: Inhibition of human PDE5 at 10 uM by CEREP assay
[17] = molecular target: Type-1 angiotensin II receptor (Homo sapiens) (UniProt P30556); assay: Inhibition of human AT1 receptor at 10 uM by CEREP assay
[18] = molecular target: Muscarinic acetylcholine receptor M2 (Homo sapiens) (UniProt P08172); assay: Inhibition of human M2 receptor at 10 uM by CEREP assay
[19] = molecular target: Type-2 angiotensin II receptor (Homo sapiens) (UniProt P50052); assay: Inhibition of human AT2 receptor at 10 uM by CEREP assay
[20] = molecular target: 5-hydroxytryptamine receptor 6 (Homo sapiens) (UniProt P50406); assay: Inhibition of human 5-HT6 receptor at 10 uM by CEREP assay
Homo sapiens [21] = species: Homo sapiens; assay: Inhibition of human I2 receptor at 10 uM by CEREP assay
[22] = Oral bioavailability in mouse at 7.1 mg/kg; format: ADME, organism-based; settings: in vivo
[23] = Inhibition of L-type Ca2+ channel verapamil site at 10 uM by CEREP assay
[24] = Inhibition of SKca channel at 10 uM by CEREP assay
[25] = molecular target: Platelet-activating factor receptor (Homo sapiens) (UniProt P25105); assay: Inhibition of human PAF receptor at 10 uM by CEREP assay
[26] = molecular target: Neuromedin-K receptor (Homo sapiens) (UniProt P29371); assay: Inhibition of human Nk3 receptor at 10 uM by CEREP assay
[27] = molecular target: Androgen receptor (Homo sapiens) (UniProt P10275); assay: Inhibition of human androgen receptor at 10 uM by CEREP assay
[28] = molecular target: Cysteinyl leukotriene receptor 1 (Homo sapiens) (UniProt Q9Y271); assay: Inhibition of human LTD4 receptor at 10 uM by CEREP assay
[29] = molecular target: Phosphodiesterase 3 (Homo sapiens) (UniProt Q14432+Q13370); assay: Inhibition of human PDE3 at 10 uM by CEREP assay; format: protein assay
[30] = molecular target: Kappa-type opioid receptor (Homo sapiens) (UniProt P41145); assay: Inhibition of KOP receptor at 10 uM by CEREP assay
[31] = Oral bioavailability in rat at 10 mg/kg; format: ADME, organism-based; settings: in vivo
[32] = molecular target: Vasopressin V1a receptor (Homo sapiens) (UniProt P37288); assay: Inhibition of human V1a receptor at 10 uM by CEREP assay
[33] = molecular target: Muscarinic acetylcholine receptor M5 (Homo sapiens) (UniProt P08912); assay: Inhibition of human M5 receptor at 10 uM by CEREP assay
[34] = Inhibition of ML1 receptor at 10 uM by CEREP assay
Homo sapiens [35] = species: Homo sapiens; assay: Inhibition of human Choline transporter at 10 uM by CEREP assay
[36] = Cmax in rat at 10 mg/kg, po; format: ADME, organism-based; parameters: dose 10 mg/kg, route oral; settings: in vivo
[37] = molecular target: Glutamate [NMDA] receptor (Homo sapiens) (UniProt Q05586+Q12879+Q13224+O15399+O60391+Q14957+Q8TCU5); assay: Inhibition of human NMDA receptor at 10 uM by CEREP assay
[38] = molecular target: Motilin receptor (Homo sapiens) (UniProt O43193); assay: Inhibition of human Motilin receptor at 10 uM by CEREP assay
[39] = molecular target: D(4) dopamine receptor (Homo sapiens) (UniProt P21917); assay: Inhibition of human D4.4 receptor at 10 uM by CEREP assay
[40] = molecular target: 5-hydroxytryptamine receptor 2A (Homo sapiens) (UniProt P28223); assay: Inhibition of human 5-HT2A receptor at 10 uM by CEREP assay
[41] = Inhibition of Na+/K+ ATPase at 10 uM by CEREP assay
[42] = molecular target: MAO-A (amine oxidase [flavin-containing] A) (Homo sapiens, UniProt P21397); assay: Inhibition of human MAO-A at 10 uM by CEREP assay
[43] = molecular target: Gastrin/cholecystokinin type B receptor (Homo sapiens) (UniProt P32239); assay: Inhibition of human CCKB receptor at 10 uM by CEREP assay
[44] = molecular target: Cannabinoid receptor 1 (Homo sapiens) (UniProt P21554); assay: Inhibition of human CB1 receptor at 10 uM by CEREP assay
[45] = molecular target: C-C chemokine receptor type 2 (Homo sapiens) (UniProt P41597); assay: Inhibition of human CCR2 receptor at 10 uM by CEREP assay
CHL = assay: Selectivity ratio of Ki for human adrenergic alpha2A receptor expressed in CHL cells to Ki for human TAAR1 receptor; format: cell-based

Chain of 5-hydroxytryptamine receptor 2A (Homo sapiens) (P28223 whole entry): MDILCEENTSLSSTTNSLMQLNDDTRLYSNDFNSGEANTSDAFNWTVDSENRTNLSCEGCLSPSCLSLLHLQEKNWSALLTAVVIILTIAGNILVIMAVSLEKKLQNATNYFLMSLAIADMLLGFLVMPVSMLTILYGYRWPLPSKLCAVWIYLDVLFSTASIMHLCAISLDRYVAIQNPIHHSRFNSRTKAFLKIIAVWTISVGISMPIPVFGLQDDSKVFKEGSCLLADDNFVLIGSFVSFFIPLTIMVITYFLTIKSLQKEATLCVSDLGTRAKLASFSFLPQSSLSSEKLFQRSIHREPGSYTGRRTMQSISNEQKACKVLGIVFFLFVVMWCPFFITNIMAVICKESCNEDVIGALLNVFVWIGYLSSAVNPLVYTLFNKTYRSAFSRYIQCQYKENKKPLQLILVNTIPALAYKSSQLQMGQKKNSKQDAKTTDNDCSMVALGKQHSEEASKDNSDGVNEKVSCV
Chain of C5a anaphylatoxin chemotactic receptor 1 (Homo sapiens) (P21730 whole entry): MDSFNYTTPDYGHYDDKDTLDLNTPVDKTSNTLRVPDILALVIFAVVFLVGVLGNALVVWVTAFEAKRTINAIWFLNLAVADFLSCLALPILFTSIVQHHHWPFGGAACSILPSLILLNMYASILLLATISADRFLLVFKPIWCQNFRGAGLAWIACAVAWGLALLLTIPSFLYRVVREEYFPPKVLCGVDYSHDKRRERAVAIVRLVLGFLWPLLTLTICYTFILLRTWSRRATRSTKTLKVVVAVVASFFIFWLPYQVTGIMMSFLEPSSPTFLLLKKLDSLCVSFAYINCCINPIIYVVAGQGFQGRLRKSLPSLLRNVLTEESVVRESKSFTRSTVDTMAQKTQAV
Chain of Cysteinyl leukotriene receptor 1 (Homo sapiens) (Q9Y271 whole entry): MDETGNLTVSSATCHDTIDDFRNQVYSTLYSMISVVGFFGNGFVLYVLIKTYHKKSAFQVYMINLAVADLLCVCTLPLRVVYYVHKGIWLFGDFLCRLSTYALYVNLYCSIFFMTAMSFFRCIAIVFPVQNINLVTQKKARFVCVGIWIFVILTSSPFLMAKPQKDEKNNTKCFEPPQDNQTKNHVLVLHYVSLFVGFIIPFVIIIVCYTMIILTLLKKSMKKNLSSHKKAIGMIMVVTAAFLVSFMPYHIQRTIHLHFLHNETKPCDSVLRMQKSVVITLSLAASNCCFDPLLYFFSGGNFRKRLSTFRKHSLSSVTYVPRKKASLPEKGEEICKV
Chain of Motilin receptor (Homo sapiens) (O43193 whole entry): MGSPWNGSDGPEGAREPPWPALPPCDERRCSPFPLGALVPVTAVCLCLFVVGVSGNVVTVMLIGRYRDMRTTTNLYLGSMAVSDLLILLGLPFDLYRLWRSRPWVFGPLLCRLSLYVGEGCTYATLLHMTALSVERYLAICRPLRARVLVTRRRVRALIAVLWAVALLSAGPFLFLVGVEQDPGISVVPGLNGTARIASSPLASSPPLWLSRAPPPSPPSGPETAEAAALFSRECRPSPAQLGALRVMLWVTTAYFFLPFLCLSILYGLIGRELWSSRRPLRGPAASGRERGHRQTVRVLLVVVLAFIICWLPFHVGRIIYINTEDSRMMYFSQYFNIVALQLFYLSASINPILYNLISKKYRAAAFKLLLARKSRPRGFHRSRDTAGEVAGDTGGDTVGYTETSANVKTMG
Chain of Type-2 angiotensin II receptor (Homo sapiens) (P50052 whole entry): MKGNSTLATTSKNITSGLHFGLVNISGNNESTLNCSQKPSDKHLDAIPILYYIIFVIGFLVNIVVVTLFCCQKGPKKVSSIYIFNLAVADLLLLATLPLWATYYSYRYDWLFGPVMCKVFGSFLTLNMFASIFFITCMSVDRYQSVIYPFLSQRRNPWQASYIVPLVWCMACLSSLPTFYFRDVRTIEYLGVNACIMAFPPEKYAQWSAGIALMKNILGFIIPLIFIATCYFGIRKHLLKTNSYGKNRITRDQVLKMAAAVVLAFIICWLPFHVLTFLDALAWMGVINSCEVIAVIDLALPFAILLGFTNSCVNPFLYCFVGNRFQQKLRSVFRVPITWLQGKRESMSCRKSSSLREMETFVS
Chain of Gastrin/cholecystokinin type B receptor (Homo sapiens) (P32239 whole entry): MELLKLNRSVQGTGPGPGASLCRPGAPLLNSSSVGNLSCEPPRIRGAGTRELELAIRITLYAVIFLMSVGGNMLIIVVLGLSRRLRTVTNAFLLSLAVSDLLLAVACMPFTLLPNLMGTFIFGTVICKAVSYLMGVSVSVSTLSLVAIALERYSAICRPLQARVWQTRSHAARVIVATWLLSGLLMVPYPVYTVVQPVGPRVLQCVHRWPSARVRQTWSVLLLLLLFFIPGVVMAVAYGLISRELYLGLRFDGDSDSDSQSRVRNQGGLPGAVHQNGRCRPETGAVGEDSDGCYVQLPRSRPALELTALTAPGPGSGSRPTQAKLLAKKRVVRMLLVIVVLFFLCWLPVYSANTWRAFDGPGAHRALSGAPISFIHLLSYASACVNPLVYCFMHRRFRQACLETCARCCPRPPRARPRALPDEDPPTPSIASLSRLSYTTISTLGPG
Chain of Histamine H1 receptor (Homo sapiens) (P35367 whole entry): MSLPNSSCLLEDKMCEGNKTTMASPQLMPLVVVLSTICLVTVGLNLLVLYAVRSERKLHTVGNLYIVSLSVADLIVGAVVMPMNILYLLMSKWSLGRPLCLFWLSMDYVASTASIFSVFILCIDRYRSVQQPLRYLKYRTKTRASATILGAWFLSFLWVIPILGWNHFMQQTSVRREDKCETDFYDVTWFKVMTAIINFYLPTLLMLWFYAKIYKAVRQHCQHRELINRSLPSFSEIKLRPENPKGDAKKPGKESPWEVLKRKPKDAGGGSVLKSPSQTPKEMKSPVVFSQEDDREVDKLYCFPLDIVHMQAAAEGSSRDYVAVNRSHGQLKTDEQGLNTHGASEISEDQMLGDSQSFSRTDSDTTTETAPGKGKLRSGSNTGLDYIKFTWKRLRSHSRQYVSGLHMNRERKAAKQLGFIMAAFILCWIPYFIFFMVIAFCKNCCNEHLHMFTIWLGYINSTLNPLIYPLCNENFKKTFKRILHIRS
Chain of Acetylcholinesterase (Homo sapiens) (P22303 whole entry): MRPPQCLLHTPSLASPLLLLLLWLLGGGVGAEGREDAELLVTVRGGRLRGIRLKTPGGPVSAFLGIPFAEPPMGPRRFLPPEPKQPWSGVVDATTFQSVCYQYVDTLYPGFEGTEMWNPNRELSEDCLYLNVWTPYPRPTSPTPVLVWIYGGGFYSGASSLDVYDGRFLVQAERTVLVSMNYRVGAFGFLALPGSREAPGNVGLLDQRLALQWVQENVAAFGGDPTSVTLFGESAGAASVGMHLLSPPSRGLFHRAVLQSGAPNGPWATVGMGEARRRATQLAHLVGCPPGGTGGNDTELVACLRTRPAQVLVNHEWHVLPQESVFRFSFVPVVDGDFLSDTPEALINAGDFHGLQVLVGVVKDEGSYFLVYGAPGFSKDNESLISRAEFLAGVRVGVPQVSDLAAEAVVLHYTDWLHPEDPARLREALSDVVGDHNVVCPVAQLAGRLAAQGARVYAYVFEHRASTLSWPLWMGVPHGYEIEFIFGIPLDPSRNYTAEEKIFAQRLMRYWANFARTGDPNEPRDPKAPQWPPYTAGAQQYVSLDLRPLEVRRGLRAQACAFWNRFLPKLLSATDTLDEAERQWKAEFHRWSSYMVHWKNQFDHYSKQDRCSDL
Chain of Muscarinic acetylcholine receptor M2 (Homo sapiens) (P08172 whole entry): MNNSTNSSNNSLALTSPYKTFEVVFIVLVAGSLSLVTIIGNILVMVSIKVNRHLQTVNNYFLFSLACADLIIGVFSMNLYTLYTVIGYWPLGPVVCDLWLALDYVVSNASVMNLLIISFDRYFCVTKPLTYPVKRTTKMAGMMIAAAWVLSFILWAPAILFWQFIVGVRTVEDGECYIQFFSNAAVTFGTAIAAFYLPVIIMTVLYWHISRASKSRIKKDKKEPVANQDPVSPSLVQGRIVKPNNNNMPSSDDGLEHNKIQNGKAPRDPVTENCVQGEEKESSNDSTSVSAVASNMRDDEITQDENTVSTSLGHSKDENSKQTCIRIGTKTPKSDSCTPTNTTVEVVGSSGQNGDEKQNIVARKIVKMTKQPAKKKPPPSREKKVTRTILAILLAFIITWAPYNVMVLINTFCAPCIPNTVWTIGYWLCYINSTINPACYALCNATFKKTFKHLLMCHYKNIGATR
Chain of MAO-A (amine oxidase [flavin-containing] A) (P21397 whole entry): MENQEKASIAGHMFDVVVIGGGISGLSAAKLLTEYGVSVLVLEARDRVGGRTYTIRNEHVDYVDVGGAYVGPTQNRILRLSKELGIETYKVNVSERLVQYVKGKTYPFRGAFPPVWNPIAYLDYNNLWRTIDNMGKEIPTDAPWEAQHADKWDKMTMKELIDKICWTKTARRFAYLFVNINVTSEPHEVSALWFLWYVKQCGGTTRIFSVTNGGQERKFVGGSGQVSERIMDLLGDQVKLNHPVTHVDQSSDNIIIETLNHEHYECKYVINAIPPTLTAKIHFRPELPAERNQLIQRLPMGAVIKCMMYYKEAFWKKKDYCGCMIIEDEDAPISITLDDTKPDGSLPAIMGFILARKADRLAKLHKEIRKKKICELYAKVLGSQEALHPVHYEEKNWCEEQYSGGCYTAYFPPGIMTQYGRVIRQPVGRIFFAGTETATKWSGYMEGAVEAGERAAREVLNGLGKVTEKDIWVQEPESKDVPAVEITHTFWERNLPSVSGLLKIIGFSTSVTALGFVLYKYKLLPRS
Chain of Substance-P receptor (Homo sapiens) (P25103 whole entry): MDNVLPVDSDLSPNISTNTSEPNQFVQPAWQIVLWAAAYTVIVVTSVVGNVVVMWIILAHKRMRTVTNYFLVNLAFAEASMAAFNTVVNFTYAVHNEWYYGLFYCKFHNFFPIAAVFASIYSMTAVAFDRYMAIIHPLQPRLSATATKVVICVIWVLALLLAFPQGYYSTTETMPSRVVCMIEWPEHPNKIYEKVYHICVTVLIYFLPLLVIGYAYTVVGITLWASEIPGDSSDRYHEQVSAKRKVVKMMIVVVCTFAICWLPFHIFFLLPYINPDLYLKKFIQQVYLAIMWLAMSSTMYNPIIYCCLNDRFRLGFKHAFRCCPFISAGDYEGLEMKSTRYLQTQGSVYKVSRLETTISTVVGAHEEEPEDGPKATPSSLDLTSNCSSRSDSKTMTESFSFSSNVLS

CCc1cccc(CC)c1Cc1ncc[nH]1
inhibition [1]: -3% | inhibition [2]: 4% | half-life [3]: 294 min | inhibition [4]: 1% | inhibition [5]: 5% | inhibition [6]: -8% | inhibition [7]: 96% | inhibition [8]: 8% | inhibition [9]: 19% | inhibition [10]: 1% | inhibition [11]: 10% | inhibition [12]: 34% | inhibition [13]: 1% | inhibition [14]: 17% | inhibition [15]: 3% | inhibition [16]: 5% | inhibition [17]: 2% | inhibition [18]: 36% | inhibition [19]: -3% | inhibition [20]: 9% | inhibition (Homo sapiens [21]): 59% | bioavailability [22]: 21% | inhibition [23]: 10% | inhibition [24]: 0% | inhibition [25]: -7% | inhibition [26]: 10% | inhibition [27]: 2% | inhibition [28]: 1% | inhibition [29]: -5% | inhibition [30]: 19% | bioavailability [31]: 17% | inhibition [32]: 1% | inhibition [33]: 8% | inhibition [34]: 32% | inhibition (Homo sapiens [35]): 23% | Cmax [36]: 100 ng/mL | inhibition [37]: 2% | inhibition [38]: 4% | inhibition [39]: -3% | inhibition [40]: -5% | inhibition [41]: -1% | inhibition at 10 µM [42]: -4% | inhibition [43]: 6% | inhibition [44]: 4% | inhibition [45]: 12% | Ratio Ki (CHL): 100
